Type in all cases: biochemical
One assay concerns the target T1, human Yes (Homo sapiens, UniProt P07947).
T1 construct: purchased Panvera/Invitrogen
The assay is described as follows: Yes kinase inhibition, luciferase-based residual ATP (KinaseGlo). Particulars: recombinant human Yes, ATP 3 μM, PTK2 substrate, 90 minutes at room temperature. Here is the method: (§1) The ability of compounds of the present invention to inhibit the activity of three groups of kinases was tested. Kinases tested included the src family (primarily src and yes), the angiogenic growth factors receptors (FGFR1, PDGFRb and VEGFR2) and the ephrin, EphB4. All kinase reactions were conducted in 96-well plates with a final reaction volume of 50 ul.
(§2) Recombinant human c-Src or Yes (28 ng/well, Panvera/Invitrogen, Madison Wis.), ATP (3 μM), a tyrosine kinase substrate (PTK2, 250 μM, Promega Corp., Madison Wis.), and test agents (at concentrations ranging from about 1 nM/l to about 100 μM/1), in the presence of Src kinase reaction buffer (Upstate USA, Lake Placid N.Y.). After reacting for about 90 minutes at room temperature, residual ATP was determined using a luciferase-based assay (KinaseGlo, Promega Corp.) as a measure of kinase activity. Data from four wells were then averaged and used to determine IC50 values for the test compounds (Prism software package, GraphPad Software, San Diego Calif.).

Another assay addresses T2, VEGFR2 (Homo sapiens, UniProt P35968).
T2 construct: purchased Cell Signaling/ProQinase
The assay is described as follows: VEGFR2 kinase assay, residual ATP luminescence. Particulars: VEGFR2, poly(glu4tyr), 1.5 uM ATP, 60 minutes at 37 C; read-out: Vegfr IC50. As for the experimental part:
as §1
(§3) FGFR1 and VEGFR2 kinase assays were similarly performed. FGFR1 (76 ng/well, Panvera/Invitrogen) was combined with 12.5 mg/ml poly(glu4tyr) (Sigma) and 2.5 uM ATP. VEGFR2 (14.1 U/well, Cell Signaling/ProQinase) was used with 0.3 mg/ml poly(glu4tyr) and 1.5 uM ATP. Both were incubated for 60 minutes at 37 C, and the residual ATP was measured via luminescence, per the procedure described above.

The target in another assay is T3, PDGFRb (Homo sapiens, UniProt P09619).
T3 construct: purchased Panvera/Invitrogen
T3 sequence (P09619 33-1106, species assumed): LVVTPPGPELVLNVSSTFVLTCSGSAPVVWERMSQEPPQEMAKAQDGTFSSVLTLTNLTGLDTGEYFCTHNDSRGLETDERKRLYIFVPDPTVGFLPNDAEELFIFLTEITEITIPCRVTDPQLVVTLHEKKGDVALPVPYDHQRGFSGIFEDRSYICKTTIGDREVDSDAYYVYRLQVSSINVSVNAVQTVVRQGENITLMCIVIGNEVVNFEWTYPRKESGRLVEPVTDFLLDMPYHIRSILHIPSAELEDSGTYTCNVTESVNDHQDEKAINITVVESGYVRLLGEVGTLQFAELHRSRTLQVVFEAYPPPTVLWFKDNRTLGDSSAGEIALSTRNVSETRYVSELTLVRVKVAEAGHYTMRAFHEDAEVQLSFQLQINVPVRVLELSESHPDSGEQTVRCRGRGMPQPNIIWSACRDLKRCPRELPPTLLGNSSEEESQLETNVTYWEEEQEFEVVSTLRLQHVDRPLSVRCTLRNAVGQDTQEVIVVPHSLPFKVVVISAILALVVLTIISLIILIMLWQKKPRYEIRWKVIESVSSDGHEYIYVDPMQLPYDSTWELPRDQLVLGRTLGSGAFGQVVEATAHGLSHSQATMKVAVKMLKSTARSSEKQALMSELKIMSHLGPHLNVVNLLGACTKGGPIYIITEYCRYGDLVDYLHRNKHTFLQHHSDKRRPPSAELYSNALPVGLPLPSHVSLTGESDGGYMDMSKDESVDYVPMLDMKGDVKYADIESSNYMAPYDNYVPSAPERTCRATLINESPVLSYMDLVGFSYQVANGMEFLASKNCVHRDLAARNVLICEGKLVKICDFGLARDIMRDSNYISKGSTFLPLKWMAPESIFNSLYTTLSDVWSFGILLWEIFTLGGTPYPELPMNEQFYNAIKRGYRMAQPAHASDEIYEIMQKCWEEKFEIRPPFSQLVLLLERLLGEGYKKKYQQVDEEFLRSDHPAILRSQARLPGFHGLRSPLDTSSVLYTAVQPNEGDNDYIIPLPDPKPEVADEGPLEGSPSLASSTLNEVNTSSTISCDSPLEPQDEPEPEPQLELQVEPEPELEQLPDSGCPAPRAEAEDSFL
The assay is described as follows: PDGFRb kinase assay, residual ATP luminescence. Particulars: PTK2 peptide, 500 nM ATP, 60 minutes at 37 C; read-out: Pdgfrβ IC50. As for the experimental part:
as §1
PDGFRb (0.16 ug/well, Panvera/Invitrogen) 500 nM ATP and the PTK2 peptide (700 uM) were combined with compound and reaction buffer as noted above for src. The reaction was incubated for 60 minutes at 37 C, and the residual ATP concentration was determined using the luciferase-based technique also noted above.

The next assay has as its target T4, FGFR1 (Homo sapiens, UniProt P11362).
T4 construct: purchased Panvera/Invitrogen
The assay is described as follows: FGFR1 kinase assay, residual ATP luminescence. Particulars: poly(glu4tyr), 2.5 uM ATP, 60 minutes at 37 C. Here is the method: as §1, §3

For a further assay, the target named is T5, human c-Src (Homo sapiens, UniProt P12931).
T5 construct: purchased Panvera/Invitrogen
T5 sequence (P12931 whole entry): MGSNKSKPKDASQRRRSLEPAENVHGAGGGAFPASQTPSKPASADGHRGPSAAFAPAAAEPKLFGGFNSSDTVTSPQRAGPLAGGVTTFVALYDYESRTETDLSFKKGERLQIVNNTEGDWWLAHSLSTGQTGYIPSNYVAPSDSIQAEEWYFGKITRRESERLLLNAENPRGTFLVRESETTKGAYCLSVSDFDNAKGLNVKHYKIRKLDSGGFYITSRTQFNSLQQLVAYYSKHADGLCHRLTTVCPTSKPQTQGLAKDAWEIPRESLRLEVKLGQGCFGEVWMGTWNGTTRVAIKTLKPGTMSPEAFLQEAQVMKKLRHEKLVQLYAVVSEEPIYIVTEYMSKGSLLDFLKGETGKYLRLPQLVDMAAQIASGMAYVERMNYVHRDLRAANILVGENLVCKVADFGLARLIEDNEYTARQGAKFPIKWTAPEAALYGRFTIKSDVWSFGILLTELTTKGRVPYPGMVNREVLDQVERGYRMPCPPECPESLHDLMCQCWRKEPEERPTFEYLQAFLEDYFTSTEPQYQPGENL
Description: Src kinase inhibition, luciferase-based residual ATP (KinaseGlo). Particulars: recombinant human c-Src, ATP 3 μM, PTK2 substrate, 90 minutes at room temperature. Here is the method: as §1, §2

The target of a further assay is T6, EphB4 (Homo sapiens, UniProt P54760).
T6 construct: purchased Upstate
T6 sequence (P54760 16-987): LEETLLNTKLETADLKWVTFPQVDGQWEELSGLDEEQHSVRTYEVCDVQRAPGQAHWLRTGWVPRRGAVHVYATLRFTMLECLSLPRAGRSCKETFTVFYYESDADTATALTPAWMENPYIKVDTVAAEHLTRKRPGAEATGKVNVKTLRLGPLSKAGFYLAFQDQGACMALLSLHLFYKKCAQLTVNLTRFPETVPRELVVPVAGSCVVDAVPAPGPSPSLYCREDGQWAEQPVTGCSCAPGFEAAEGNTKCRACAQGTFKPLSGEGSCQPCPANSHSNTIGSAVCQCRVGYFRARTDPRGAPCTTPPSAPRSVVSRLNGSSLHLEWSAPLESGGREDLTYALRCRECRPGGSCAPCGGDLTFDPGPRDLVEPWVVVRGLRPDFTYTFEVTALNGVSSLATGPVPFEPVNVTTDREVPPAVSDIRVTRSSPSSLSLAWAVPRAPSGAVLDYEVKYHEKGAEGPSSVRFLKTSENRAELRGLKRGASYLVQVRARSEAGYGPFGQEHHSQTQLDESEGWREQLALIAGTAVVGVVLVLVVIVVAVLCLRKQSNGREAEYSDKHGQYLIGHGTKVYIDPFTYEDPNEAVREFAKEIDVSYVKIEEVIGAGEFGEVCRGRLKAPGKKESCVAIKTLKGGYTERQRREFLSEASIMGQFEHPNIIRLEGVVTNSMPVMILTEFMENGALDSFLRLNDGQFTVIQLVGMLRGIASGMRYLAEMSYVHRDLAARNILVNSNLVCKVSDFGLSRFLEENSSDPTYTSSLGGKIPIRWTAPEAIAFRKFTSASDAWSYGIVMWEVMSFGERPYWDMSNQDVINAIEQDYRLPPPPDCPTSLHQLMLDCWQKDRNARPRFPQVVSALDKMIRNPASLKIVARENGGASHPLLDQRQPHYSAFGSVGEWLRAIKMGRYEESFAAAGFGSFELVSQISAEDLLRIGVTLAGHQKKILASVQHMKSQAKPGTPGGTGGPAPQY
Description: EphB4 kinase assay, residual ATP luminescence. Particulars: poly(glu4tyr), 6 uM ATP, 60 minutes at 37 C. As for the experimental part:
as §1
EphB4 kinase activity was similarly measured, using the luciferase-based technique described above. 28.9 mU/well EphB4 (Upstate) was reacted with 1 mg/ml poly(glu4tyr), 6 uM ATP and test reagents. The reaction was incubated for 60 minutes at 37 C and the residual ATP concentration was measured.

T4 sequence (P11362 22-822, species assumed): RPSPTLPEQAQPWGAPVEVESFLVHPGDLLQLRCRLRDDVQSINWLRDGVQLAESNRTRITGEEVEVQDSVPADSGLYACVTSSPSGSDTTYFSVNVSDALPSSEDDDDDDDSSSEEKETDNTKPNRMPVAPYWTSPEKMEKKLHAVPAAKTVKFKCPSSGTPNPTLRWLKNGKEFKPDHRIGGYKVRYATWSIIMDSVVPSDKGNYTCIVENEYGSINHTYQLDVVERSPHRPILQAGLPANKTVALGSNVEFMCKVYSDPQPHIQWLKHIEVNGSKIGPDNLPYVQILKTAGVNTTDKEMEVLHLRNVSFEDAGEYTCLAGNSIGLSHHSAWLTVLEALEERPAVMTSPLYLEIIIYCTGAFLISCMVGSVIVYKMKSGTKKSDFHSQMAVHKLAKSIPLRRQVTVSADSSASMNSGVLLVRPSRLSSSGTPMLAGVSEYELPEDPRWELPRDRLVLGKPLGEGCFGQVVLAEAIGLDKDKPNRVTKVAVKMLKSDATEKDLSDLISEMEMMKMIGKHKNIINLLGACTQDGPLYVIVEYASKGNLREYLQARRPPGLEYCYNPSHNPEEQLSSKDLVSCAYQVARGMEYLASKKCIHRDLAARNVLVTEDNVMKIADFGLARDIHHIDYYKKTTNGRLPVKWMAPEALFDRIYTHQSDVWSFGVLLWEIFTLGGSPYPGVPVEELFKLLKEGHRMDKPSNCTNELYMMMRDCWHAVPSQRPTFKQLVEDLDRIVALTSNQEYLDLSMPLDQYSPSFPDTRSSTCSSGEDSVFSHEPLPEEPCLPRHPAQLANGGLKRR
T2 sequence (P35968 20-1356, species assumed): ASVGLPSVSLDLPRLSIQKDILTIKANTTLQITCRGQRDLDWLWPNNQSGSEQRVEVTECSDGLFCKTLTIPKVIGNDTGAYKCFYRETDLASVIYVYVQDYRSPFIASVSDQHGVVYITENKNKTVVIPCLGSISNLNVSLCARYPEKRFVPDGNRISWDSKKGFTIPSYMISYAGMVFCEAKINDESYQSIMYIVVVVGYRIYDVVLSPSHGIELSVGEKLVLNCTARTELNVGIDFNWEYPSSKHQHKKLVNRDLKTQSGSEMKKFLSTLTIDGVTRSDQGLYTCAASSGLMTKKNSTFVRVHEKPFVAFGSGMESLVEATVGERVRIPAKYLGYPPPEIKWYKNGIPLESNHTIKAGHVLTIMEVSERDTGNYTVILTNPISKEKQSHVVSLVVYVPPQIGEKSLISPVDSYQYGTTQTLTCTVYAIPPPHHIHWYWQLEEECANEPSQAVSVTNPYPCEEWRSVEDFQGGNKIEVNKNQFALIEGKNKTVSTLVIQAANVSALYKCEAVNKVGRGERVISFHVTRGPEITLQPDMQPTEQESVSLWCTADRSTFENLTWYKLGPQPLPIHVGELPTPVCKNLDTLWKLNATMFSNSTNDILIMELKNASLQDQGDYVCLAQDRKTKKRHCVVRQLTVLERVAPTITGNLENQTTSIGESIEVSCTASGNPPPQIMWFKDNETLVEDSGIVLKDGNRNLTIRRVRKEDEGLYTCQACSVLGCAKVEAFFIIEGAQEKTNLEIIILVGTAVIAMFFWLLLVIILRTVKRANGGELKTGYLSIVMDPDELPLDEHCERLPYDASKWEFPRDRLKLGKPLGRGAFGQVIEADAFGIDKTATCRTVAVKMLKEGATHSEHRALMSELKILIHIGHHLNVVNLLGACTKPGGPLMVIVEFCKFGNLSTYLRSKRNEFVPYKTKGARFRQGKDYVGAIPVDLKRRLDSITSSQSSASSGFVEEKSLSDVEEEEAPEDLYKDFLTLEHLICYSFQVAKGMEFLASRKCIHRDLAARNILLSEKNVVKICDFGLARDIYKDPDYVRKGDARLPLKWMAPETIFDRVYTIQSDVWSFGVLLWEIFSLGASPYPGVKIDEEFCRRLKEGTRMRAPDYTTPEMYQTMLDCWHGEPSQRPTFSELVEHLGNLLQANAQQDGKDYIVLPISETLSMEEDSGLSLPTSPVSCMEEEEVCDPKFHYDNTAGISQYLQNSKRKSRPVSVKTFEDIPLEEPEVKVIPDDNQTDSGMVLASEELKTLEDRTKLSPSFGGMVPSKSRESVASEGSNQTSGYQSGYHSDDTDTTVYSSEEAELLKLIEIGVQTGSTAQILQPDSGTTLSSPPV
T1 sequence (P07947 whole entry): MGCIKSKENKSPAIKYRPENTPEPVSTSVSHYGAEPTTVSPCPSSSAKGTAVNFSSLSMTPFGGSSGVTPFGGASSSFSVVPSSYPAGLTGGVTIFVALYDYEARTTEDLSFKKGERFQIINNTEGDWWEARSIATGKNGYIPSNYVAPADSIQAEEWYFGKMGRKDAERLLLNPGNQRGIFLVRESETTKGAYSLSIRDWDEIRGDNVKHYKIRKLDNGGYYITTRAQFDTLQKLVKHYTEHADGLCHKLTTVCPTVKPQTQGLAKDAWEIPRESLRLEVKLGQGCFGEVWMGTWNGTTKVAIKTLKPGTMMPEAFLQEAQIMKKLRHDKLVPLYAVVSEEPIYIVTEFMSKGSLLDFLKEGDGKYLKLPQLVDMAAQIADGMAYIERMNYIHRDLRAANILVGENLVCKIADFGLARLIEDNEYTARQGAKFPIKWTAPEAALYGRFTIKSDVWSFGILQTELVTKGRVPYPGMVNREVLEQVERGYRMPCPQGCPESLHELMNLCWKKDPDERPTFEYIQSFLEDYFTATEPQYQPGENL

As for `Clc1cccc(Cl)c1CNc1cnc(Nc2ccc(OCCN3CCCC3)cc2)nc1`, the half-maximal inhibitory concentration (IC50) was determined as 40 nM at human Yes, 907 nM on VEGFR2, 51 nM on PDGFRb and 5280 nM against FGFR1.
As for `O=C(Nc1cnc(Nc2ccc(CCCN3CCCC3)cc2)nc1)c1c(Cl)cccc1Cl`, the IC50 was 26 nM on human Yes, more than 10000 nM on VEGFR2, 206 nM at PDGFRb and more than 10000 nM against FGFR1.
With `O=C(NCCN1CCCC1)c1ccc(Nc2ncc(NC(=O)c3cc(O)ccc3Cl)cn2)cc1` [XXV, 2-Chloro-5-hydroxy-N-{2-[4-(2-pyrrolidin-1-yl-ethylcarbamoyl)-phenylamino]-pyrimidin-5-yl}-benzamide], the IC50 at human c-Src turned out to be 8.5 nM.
Consider `Cc1c(O)cccc1C(=O)Nc1cnc(Nc2ccc(C(=O)NCCN3CCCC3)cc2)nc1` [XXVII, 3-Hydroxy-2-methyl-N-{2-[4-(2-pyrrolidin-1-yl-ethylcarbamoyl)-phenylamino]-pyrimidin-5-yl}-benzamide], for which the IC50 on human c-Src came out at 216 nM.
As to `O=C(NCCN1CCCC1)c1ccc(Nc2ncc(NC(=O)c3c(Cl)cccc3Cl)cn2)cc1` [XXVIII, 2,6-Dichloro-N-{2-[4-(2-pyrrolidin-1-yl-ethylcarbamoyl)-phenylamino]-pyrimidin-5-yl}-benzamide], the 50% inhibitory concentration (IC50) at human c-Src came to 60 nM.
In the case of `O=C(Nc1cc(O)ccc1Cl)c1cnc(Nc2ccc(OCCN3CCCC3)cc2)nc1C(F)(F)F` [XXX, 2-[4-(2-Pyrrolidin-1-yl-ethoxy)-phenylamino]-4-trifluoromethyl-pyrimidine-5-carboxylic acid (2-chloro-5-hydroxy-phenyl)-amide], the concentration for half-maximal inhibition (IC50) at human c-Src was 1340 nM.
In the case of `N#Cc1cccc(C(=O)Nc2cnc(Nc3ccc(S(=O)(=O)CCCN4CCCC4)cc3)nc2)c1` [XXXI, 3-Cyano-N-{2-[4-(3-pyrrolidin-1-yl-propane-1-sulfonyl)-phenylamino]-pyrimidin-5-yl}-benzamide], at human c-Src, the concentration for half-maximal inhibition (IC50) was more than 10000 nM.
Still for that read-out and setting: to `O=C(Nc1cnc(Nc2ccc(S(=O)(=O)CCCN3CCCC3)cc2)nc1)c1cc(O)ccc1Cl` [XXXII, 2-Chloro-5-hydroxy-N-{2-[4-(3-pyrrolidin-1-yl-propane-1-sulfonyl)-phenylamino]-pyrimidin-5-yl}-benzamide] belongs 9.8 nM; to `Cc1c(O)cccc1C(=O)Nc1cnc(Nc2ccc(S(=O)(=O)CCCN3CCCC3)cc2)nc1` [XXXIII, 3-Hydroxy-2-methyl-N-{2-[4-(3-pyrrolidin-1-yl-propane-1-sulfonyl)-phenylamino]-pyrimidin-5-yl}-benzamide], 338 nM; to `O=C(Nc1cnc(Nc2ccc(S(=O)(=O)CCCN3CCCC3)cc2)nc1)c1c(Cl)cccc1Cl` [XXXIV, 2,6-Dichloro-N-{2-[4-(3-pyrrolidin-1-yl-pronane-1-sulfonyl)-phenylamino]-pyrimidin-5-yl}-benzamide], 119 nM.
Turning to `Cc1cccc(C)c1C(=O)Nc1cnc(Nc2ccc(OCCN3CCCC3)cc2)nc1` [XXXIX, N-(2-(4-(2-(Pyrrolidin-1-yl)ethoxy)phenylamino)pyrimidin-5-yl)-2,6-dimethyl-benzamide], the concentration for half-maximal inhibition (IC50) at human c-Src worked out at 104 nM.
Take `O=C(Nc1cnc(Nc2ccc(S(=O)(=O)CCCN3CCCC3)cc2)nc1)c1ccc(O)cc1Cl` [XXXV, 2-Chloro-4-hydroxy-N-{2-[4-(3-pyrrolidin-1-yl-propane-1-sulfonyl)-phenylamino]-pyrimidin-5-yl}-benzamide]: the IC50 on human c-Src amounted to 462 nM.
In the case of `O=C(Nc1cnc(Nc2ccc(S(=O)(=O)CCCN3CCCC3)cc2)nc1)c1cccc(O)c1` [XXXVI, 3-Hydroxy-N-{2-[4-(3-pyrrolidin-1-yl-propane-1-sulfonyl)-phenylamino]-pyrimidin-5-yl}-benzamide], at human c-Src, the IC50 came out at 1490 nM.
With `O=C(Nc1cnc(Nc2ccc(S(=O)(=O)CCCN3CCCC3)cc2)nc1)c1cc(Cl)ccc1Cl` [XXXVII, 2,5-Dichloro-N-{2-[4-(3-pyrrolidin-1-yl-propane-1-sulfonyl)-phenylamino]-pyrimidin-5-yl}-benzamide], at human c-Src, the IC50 amounted to 1750 nM.
The same measure, in the same setting: to `O=C(Nc1cnc(Nc2ccc(OCCN3CCCC3)cc2)nc1)c1cc(O)ccc1Cl` [XXXVIII, N-(2-(4-(2-(Pyrrolidin-1-yl)ethoxy)phenylamino)pyrimidin-5-yl)-2-chloro-5-hydroxybenzamide] belongs 27 nM.
With `O=C(Nc1cnc(Nc2ccc(OCCN3CCCC3)cc2)nc1)c1cc(O)ccc1Cl` [drawing 200], the IC50 on human Yes was 26 nM; at VEGFR2 it was 564 nM; on EphB4, 200 nM; at PDGFRb, 20 nM; at FGFR1, 20000 nM.
In the case of `O=C(Nc1cnc(Nc2cccc(OCCN3CCCC3)c2)nc1)c1cc(O)ccc1Cl` [drawing 201], the half-inhibitory concentration (IC50) stood at 10 nM on human Yes; 1260 nM at VEGFR2; 109 nM on EphB4; 13 nM at PDGFRb; 7200 nM on FGFR1.
On to `O=C(Nc1cnc(Nc2cccc(OCCN3CCCC3)c2)nc1)c1c(Cl)cccc1Cl` [drawing 202], for which the IC50 is 8 nM on human Yes; more than 10000 nM at VEGFR2; 434 nM on EphB4; 181 nM on PDGFRb; more than 10000 nM against FGFR1.
Take `O=C(Nc1cnc(Nc2ccc(S(=O)(=O)NCCN3CCCC3)cc2)nc1)c1cc(O)ccc1Cl` [drawing 203]: the IC50 turned out to be 0.8 nM at human Yes, 322 nM at VEGFR2 and 5200 nM against FGFR1.
Take `O=C(Nc1cnc(Nc2ccc(C(=O)N3CCNCC3)cc2)nc1)c1cc(O)ccc1Cl` [drawing 205]: the values for the IC50 on human Yes, on VEGFR2 and against FGFR1 were 1.9 nM, 310 nM and 5400 nM, respectively.
On to `O=C(Nc1cnc(Nc2ccc(S(=O)(=O)CCCN3CCCC3)cc2)nc1)c1cc(O)ccc1Cl` [drawing 206], for which the IC50 at human Yes came to 3.7 nM; on VEGFR2, 358 nM; on FGFR1, 7500 nM.
`CN1CCN(C(=O)c2ccc(Nc3ncc(NC(=O)c4cc(O)ccc4Cl)cn3)cc2)CC1` [drawing 207]: the results for the IC50 at human Yes, on VEGFR2 and against FGFR1 were 10 nM, 360 nM and 9400 nM, respectively.
Regarding `O=C(NCCN1CCCC1)c1csc(Nc2ncc(NC(=O)c3cc(O)ccc3Cl)cn2)n1` [drawing 209], the IC50 at human Yes is 19 nM; at VEGFR2, 614 nM; on FGFR1, 2100 nM.
As for `Clc1cccc(Cl)c1CNc1cnc(Nc2cccc(OCCN3CCCC3)c2)nc1` [drawing 211], the IC50 was 6 nM on human Yes, 138 nM on VEGFR2, 190 nM against EphB4 and more than 10000 nM against FGFR1.

The values above are taken from US20060247250A1 (TargeGen, Inc., priority 2005, published 2006).
